Results reported in patent US9708314B2, “Heterocyclic amide compound” (NISSAN CHEMICAL INDUSTRIES, LTD., priority 2013, dated 2017).

Key:
Assay type in all cases: in vivo
Monochoria vaginalis = assay: Test Example 1: herbicidal activity, application before weed generation in submerged conditions; conditions: Seventeenth Table; for C: Monochoria vaginalis (herbicidal effect grade): Application herbicide amount 320 g/ha
Outline: (§1)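 Rating, on a six-step scale from almost no effect (0) to almost completely withered (5), was made three weeks after pre-emergence treatment. Treatment was surface application to flooded pots at g/ha rates, with plants kept at 25° C. to 30° C.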

[1] = test system: Echinochloa oryzacola Vasing.; assay: as above; conditions: Seventeenth Table; for A: Echinochloa oryzicola Vasing. (herbicidal effect grade): Application herbicide amount 320 g/ha
Outline: as §1

Scirpus juncoides = assay: as above; conditions: Seventeenth Table; for B: Scirpus juncoides (herbicidal effect grade): Application herbicide amount 320 g/ha
Outline: as §1

[2] = test system: Echinochloa crus-galli var. crus-galli; assay: Test Example 3: herbicidal effect by application to foliage (Wagner pot, water depth 0.1-0.5 cm); conditions: Nineteenth Table; application to foliage; application herbicide amount 320 g/ha
Outline: (§2)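 Rice-field weeds and directly sown rice were grown 14 days in flooded alluvial soil (water depth 0.1–0.5 cm) at 25–30 °C in a greenhouse. An emulsion formulation diluted to the stated g/ha rate was sprayed onto stems and leaves. Effects were scored on a 0–5 scale (herbicidal ratio bands) three weeks after treatment.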

Leptochloa chinensis = assay: as above; conditions: Nineteenth Table; application to foliage; application herbicide amount 320 g/ha
Outline: as §2

Cyperus difformis = assay: as above; conditions: Nineteenth Table; application to foliage; application herbicide amount 320 g/ha
Outline: as §2

[3] = application herbicide amount 320 g/ha

SMILES | C: Monochoria vaginalis (herbicidal effect grade) (Monochoria vaginalis) | A: Echinochloa oryzicola Vasing. (herbicidal effect grade) [1] | B: Scirpus juncoides (herbicidal effect grade) (Scirpus juncoides) | H (herbicidal effect grade) [2] | D (herbicidal effect grade) (Leptochloa chinensis) | E (herbicidal effect grade) (Cyperus difformis) | C (Monochoria vaginalis) herbicidal ratio grade (Monochoria vaginalis; [3]) | A (Echinochloa oryzicola Vasing.) herbicidal ratio grade [1, 3] | B (Scirpus juncoides) herbicidal ratio grade (Scirpus juncoides; [3])
Cn1nnnc1NC(=O)c1ccc(C(F)(F)F)n2c(NCC(F)(F)F)nnc12 [2-081] | 4 (Herbicidal ratio of 70% or more and less than 90%) | 4 (Herbicidal ratio of 70% or more and less than 90%) | 3 (Herbicidal ratio of 40% or more and less than 70%) | 5 (Herbicidal ratio of 90% or more (almost completely withered)) | 5 (Herbicidal ratio of 90% or more (almost completely withered)) | 5 (Herbicidal ratio of 90% or more (almost completely withered)) |  |  | 
CCN(CC)c1nnc2c(C(=O)Nc3nnnn3C)ccc(C(F)(F)F)n12 [2-089] | 5 (Herbicidal ratio of 90% or more (almost completely withered)) | 5 (Herbicidal ratio of 90% or more (almost completely withered)) | 5 (Herbicidal ratio of 90% or more (almost completely withered)) | 4 (Herbicidal ratio of 70% or more and less than 90%) | 5 (Herbicidal ratio of 90% or more (almost completely withered)) | 4 (Herbicidal ratio of 70% or more and less than 90%) |  |  | 
COC(=O)Cn1nnnc1NC(=O)c1ccc(C(F)(F)F)n2c(C(C)C)nnc12 [2-046] | 0 (Herbicidal ratio of 5% or less (almost no effect)) | 4 (Herbicidal ratio of 70% or more and less than 90%) | 0 (Herbicidal ratio of 5% or less (almost no effect)) | 2 (Herbicidal ratio of 20% or more and less than 40%) | 3 (Herbicidal ratio of 40% or more and less than 70%) | 3 (Herbicidal ratio of 40% or more and less than 70%) |  |  | 
Cn1nnnc1NC(=O)c1ccc(C(F)(F)F)n2c(-c3ccc(F)cc3)nnc12 [2-043] | 5 (Herbicidal ratio of 90% or more (almost completely withered)) | 5 (Herbicidal ratio of 90% or more (almost completely withered)) | 5 (Herbicidal ratio of 90% or more (almost completely withered)) | 5 (Herbicidal ratio of 90% or more (almost completely withered)) | 5 (Herbicidal ratio of 90% or more (almost completely withered)) | 5 (Herbicidal ratio of 90% or more (almost completely withered)) |  |  | 
CCn1nc2c(C(=O)Nc3nnnn3C)ccc(C(F)(F)F)n2c1=O [6-004] |  |  |  | 4 (Herbicidal ratio of 70% or more and less than 90%) | 5 (Herbicidal ratio of 90% or more (almost completely withered)) | 2 (Herbicidal ratio of 20% or more and less than 40%) | 2 (Herbicidal ratio of 20% or more and less than 40%) | 0 (Herbicidal ratio of 5% or less (almost no effect)) | 0 (Herbicidal ratio of 5% or less (almost no effect))
CC(C)Nc1nnc2c(C(=O)Nc3nnnn3C)ccc(C(F)(F)F)n12 [2-066] | 4 (Herbicidal ratio of 70% or more and less than 90%) | 5 (Herbicidal ratio of 90% or more (almost completely withered)) | 5 (Herbicidal ratio of 90% or more (almost completely withered)) | 5 (Herbicidal ratio of 90% or more (almost completely withered)) | 5 (Herbicidal ratio of 90% or more (almost completely withered)) | 5 (Herbicidal ratio of 90% or more (almost completely withered)) |  |  | 
Cn1nnnc1NC(=O)c1ccc(C(F)(F)F)n2c(SCC(F)(F)F)nnc12 [2-087] | 4 (Herbicidal ratio of 70% or more and less than 90%) | 5 (Herbicidal ratio of 90% or more (almost completely withered)) | 5 (Herbicidal ratio of 90% or more (almost completely withered)) | 5 (Herbicidal ratio of 90% or more (almost completely withered)) | 5 (Herbicidal ratio of 90% or more (almost completely withered)) | 5 (Herbicidal ratio of 90% or more (almost completely withered)) |  |  | 
CCC(C)Sc1nnc2c(C(=O)Nc3nnnn3C)ccc(C(F)(F)F)n12 (stereo not drawn) [2-072] | 5 (Herbicidal ratio of 90% or more (almost completely withered)) | 5 (Herbicidal ratio of 90% or more (almost completely withered)) | 5 (Herbicidal ratio of 90% or more (almost completely withered)) | 4 (Herbicidal ratio of 70% or more and less than 90%) | 5 (Herbicidal ratio of 90% or more (almost completely withered)) | 5 (Herbicidal ratio of 90% or more (almost completely withered)) |  |  | 
CSCCc1nnc2c(C(=O)Nc3nnnn3C)ccc(C(F)(F)F)n12 [2-057] | 4 (Herbicidal ratio of 70% or more and less than 90%) | 4 (Herbicidal ratio of 70% or more and less than 90%) | 4 (Herbicidal ratio of 70% or more and less than 90%) | 5 (Herbicidal ratio of 90% or more (almost completely withered)) | 5 (Herbicidal ratio of 90% or more (almost completely withered)) | 5 (Herbicidal ratio of 90% or more (almost completely withered)) |  |  | 
CCCSc1nnc2c(C(=O)Nc3nnnn3C)ccc(C(F)(F)F)n12 [2-068] | 4 (Herbicidal ratio of 70% or more and less than 90%) | 5 (Herbicidal ratio of 90% or more (almost completely withered)) | 5 (Herbicidal ratio of 90% or more (almost completely withered)) | 5 (Herbicidal ratio of 90% or more (almost completely withered)) | 5 (Herbicidal ratio of 90% or more (almost completely withered)) | 5 (Herbicidal ratio of 90% or more (almost completely withered)) |  |  | 
CC(C)N(C)c1nnc2c(C(=O)Nc3nnnn3C)ccc(C(F)(F)F)n12 [2-082] | 5 (Herbicidal ratio of 90% or more (almost completely withered)) | 5 (Herbicidal ratio of 90% or more (almost completely withered)) | 5 (Herbicidal ratio of 90% or more (almost completely withered)) | 5 (Herbicidal ratio of 90% or more (almost completely withered)) | 5 (Herbicidal ratio of 90% or more (almost completely withered)) | 5 (Herbicidal ratio of 90% or more (almost completely withered)) |  |  | 
CSCCNc1nnc2c(C(=O)Nc3nnnn3C)ccc(C(F)(F)F)n12 [2-080] | 0 (Herbicidal ratio of 5% or less (almost no effect)) | 3 (Herbicidal ratio of 40% or more and less than 70%) | 0 (Herbicidal ratio of 5% or less (almost no effect)) | 4 (Herbicidal ratio of 70% or more and less than 90%) | 5 (Herbicidal ratio of 90% or more (almost completely withered)) | 5 (Herbicidal ratio of 90% or more (almost completely withered)) |  |  | 
CSCCn1nnnc1NC(=O)c1ccc(C(F)(F)F)n2c(C(C)C)nnc12 [2-048] | 4 (Herbicidal ratio of 70% or more and less than 90%) | 5 (Herbicidal ratio of 90% or more (almost completely withered)) | 5 (Herbicidal ratio of 90% or more (almost completely withered)) | 5 (Herbicidal ratio of 90% or more (almost completely withered)) | 5 (Herbicidal ratio of 90% or more (almost completely withered)) | 5 (Herbicidal ratio of 90% or more (almost completely withered)) |  |  | 
